Laboratory results taken from US8791092B2 (priority 2009, dated 2014).
Entries after “also recorded” stand apart in the source; their conditions may differ.

Assays:
[1] = target: T1, islet amyloid polypeptide (IAPP) (Homo sapiens, UniProt P10997); assay: Fibrillogenesis of islet amyloid polypeptide (ThT fluorescence and EM); type: biochemical; conditions: 1:10 or 1:20 concentration ratio
T1 sequence (P10997 34-70 limits assumed): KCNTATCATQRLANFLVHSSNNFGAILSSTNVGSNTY

[2] = system: differentiated PC-12 cells; assay: Effect of tweezers alone on cell viability, MTT assay; type: cell-based; conditions: 50 μM TW1
Experimental: (§1) Cell viability relative to media control was measured using the MTT assay.
(§2) Freshly prepared 10 μM Aβ40 or Aβ42 were mixed with each of the three tweezers derivatives and added to differentiated PC-12 cells. Cell viability relative to media control was measured using the MTT assay.
(§3) 7. […] Based on the capability of the tweezers to inhibit Aβ aggregation, disaggregate pre-formed Aβ fibrils, and stabilize putatively non-toxic Aβ oligomers, we predicted that they should inhibit Aβ-induced toxicity. […] Next, we evaluated the dose-dependence of the effect of each of the three tweezers derivatives on Aβ40 and Aβ42 using the same cell culture system. Aβ42 was used at 10 μM as in the previous experiment, whereas the less neurotoxic Aβ40 was used at 25 μM. […] PC-12 cells were differentiated for 48 hours prior to the start of the assay. […] Based on the data extant, prediction of inhibitory activity based on tweezers structure alone is impossible. Thus, using molecular tweezers as inhibitors of Aβ toxicity is by no means trivial.

[3] = system: primary mouse hippocampal neurons; assay: Aβ42-mediated inhibition of miniature excitatory postsynaptic currents (mEPSCs); type: cell-based; conditions: 3 μM Aβ42, 1:10 Aβ42:TW1
Experimental: Cells were perfused with vehicle for 5 min to establish baseline, and then with peptide or peptide:tweezers solutions for additional 20 minutes, and allowed to recover in vehicle solution for 15 minutes.
(§4) 8. […] An early neurotoxic event induced by Aβ oligomers and believed to be a predominant pathologic mechanism causing amnestic mild cognitive impairment (MCIa) and early AD^(1) is disruption of synapse morphology and communication (Shankar et al. (2007) J. Neurosci. 27: 2866-2875). […] Aβ42 oligomers caused essentially complete depletion of dendritic spines (FIG. 14, panels B, C) compared to control (FIG. 14, panel A). […] This effect endured after the 15-min washing period.

calcitonin = target: T2, calcitonin (Homo sapiens, UniProt P01258); assay: Fibrillogenesis of calcitonin (ThT fluorescence and EM); type: biochemical; conditions: 1:10 or 1:20 concentration ratio
T2 sequence (P01258 85-116 limits assumed): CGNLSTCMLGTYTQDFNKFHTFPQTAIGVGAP

Aβ40 [4] = target: T3, Aβ40 (Homo sapiens, UniProt P05067); conditions: 20 μM Aβ40, 10-fold excess TW1; for over a month
T3 sequence (P05067 672-711 limits assumed): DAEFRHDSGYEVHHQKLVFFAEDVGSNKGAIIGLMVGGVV

Aβ42 [5] = target: T4, Aβ42 (Homo sapiens, UniProt P05067); assay: β-sheet formation by Aβ42 under agitation (shaking); type: biochemical; design: C) 30 μM Aβ42; conditions: 10 μM Aβ42; 1:10 Aβ:tweezers concentration ratio; shaken at 200 rpm
T4 sequence (P05067 672-713 limits assumed): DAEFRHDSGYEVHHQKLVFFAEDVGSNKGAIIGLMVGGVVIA
Experimental: Aβ42 was used at 10 μM. […] The samples were shaken at 200 rpm.

Aβ42 [6] = target: T4, Aβ42; assay: Aβ42 aggregation measured by dynamic light scattering (DLS); type: biochemical; design: C) 30 μM Aβ42
β2-microglobulin (β2m) = β2-microglobulin (β2m) (Homo sapiens, UniProt P61769); assay: Fibrillogenesis of β2-microglobulin (ThT fluorescence and EM); type: biochemical; conditions: 1:10 or 1:20 concentration ratio
Sequence of β2-microglobulin (β2m) (P61769 21-119): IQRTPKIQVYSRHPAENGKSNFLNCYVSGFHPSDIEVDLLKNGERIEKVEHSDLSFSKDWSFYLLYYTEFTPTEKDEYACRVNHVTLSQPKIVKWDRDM

Aβ42 [7] = target: T4, Aβ42; assay: Quiescent Aβ42 β-sheet formation measured by thioflavin T (ThT) fluorescence; conditions: 25 μM Aβ42, 20 μM tweezers, substoichiometric
insulin = insulin (Homo sapiens, UniProt P01308); assay: Fibrillogenesis of insulin (ThT fluorescence and EM); type: biochemical; conditions: 1:10 or 1:20 concentration ratio
Sequence of insulin (P01308 25-54 limits assumed, species assumed): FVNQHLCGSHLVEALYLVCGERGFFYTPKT
Sequence of insulin (P01308 90-110 partner limits assumed, species assumed): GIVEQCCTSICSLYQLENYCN

[8] = system: Aβ40-induced toxicity in differentiated PC-12 cells; assay: Aβ40-induced toxicity, MTT assay in differentiated PC-12 cells; type: cell-based
Experimental: as §2, §3

Aβ40 [9] = target: T3, Aβ40; type: binding; design: A) 25 μM Aβ40; conditions: 1:1 Aβ40:TW1 concentration ratio
Aβ42 [10] = target: T4, Aβ42; assay: Quiescent Aβ42 fibril formation measured by electron microscopy (EM); type: biochemical; design: C) 30 μM Aβ42; conditions: 25 μM Aβ42 + 20 μM TW1, days 3, 5, 10
Experimental: 8 μL of each solution were applied to glow-discharged, carbon-coated Formvar grids and incubated for 20 min. The samples were fixed by incubating with 5 μL of 2.5% glutaraldehyde for 5 min, and stained with 5 μL of 1% uranyl acetate for 5 min. The stained samples were examined using a JEOL CX100 electron microscope. A-C) 25 μM Aβ42. […] A, D) day 3. B, E) day 5. C, F) day 10.
5. TW1 attenuates Aβ fibril formation as measured by electron microscopy (EM).

[11] = system: rat primary hippocampal neurons; assay: Aβ42-induced decrease in dendritic spine density; type: cell-based
Experimental: Neurons were visualized by staining F-actin with phalloidin (red) and nuclei were stained with DAPI (blue). A) Untreated cells show abundant dendritic spines (rough appearance). B and C) Show duplicate fields from the same experiment. Cells incubated with 500 nM Aβ42 oligomers show essential absence of spines (smooth neurites).
as §4

[12] = system: Aβ42-induced toxicity in differentiated PC-12 cells; assay: Aβ42-induced toxicity, MTT assay in differentiated PC-12 cells; type: cell-based
Experimental: as §1, §2, §3

O=P(O)(O)Oc1c2c(c(OP(=O)(O)O)c3c1C1C[C@H]3c3cc4c(cc31)C1C[C@H]4c3ccccc31)[C@@H]1CC2c2cc3c(cc21)[C@@H]1CC3c2ccccc21 [TW1]
inhibition of IAPP fibrillogenesis [1]: inhibited the fibrillogenesis; also recorded: inhibited the aggregation | toxicity of tweezers alone (in words) [2]: nontoxic | rescue of Aβ42-induced reduction of mEPSC frequency [3]: rescued to baseline level; also recorded: rescues the toxic effect of Aβ42 to baseline level | inhibition of calcitonin fibrillogenesis (calcitonin): inhibited the fibrillogenesis; also recorded: inhibited the aggregation | Aβ40 particle growth (DLS) (Aβ40 [4]): no particle growth was observed | inhibition of β-sheet formation by Aβ42 under agitation (Aβ42 [5]): efficient inhibition; also recorded: completely inhibited | Aβ42 particle growth (DLS) (Aβ42 [6]; 20 μM Aβ42, 10-fold excess TW1, for over a month): no particle growth was observed | Aβ42 particle growth (DLS) (Aβ42 [6]; 1:1 concentration ratio): substantially delayed or not observed at all | inhibition of β2m fibrillogenesis (β2-microglobulin (β2m)): inhibited the fibrillogenesis; also recorded: inhibited the aggregation | inhibition of β-sheet formation by Aβ42 (ThT) (Aβ42 [7]): inhibit β-sheet formation | inhibition of insulin fibrillogenesis (insulin): inhibited the fibrillogenesis; also recorded: inhibited the aggregation | IC50 ([8]; Rattus norvegicus, PC-12, 48 h, read-out: IC50, inhibition of Aβ40-induced toxicity): 7 µM | inhibition of Aβ40-induced toxicity (in words) ([8]; tweezers 0.1-100 μM, dose-dependence experiment): inhibit Aβ-induced toxicity dose-dependently | binding site of TW1 in the 1:1 complex (ECD) (Aβ40 [9]): within the Aβ(14-23) region, most likely at Lys16; also recorded: Lys16 | conversion of Aβ42 to typical amyloid fibrils (EM) (Aβ42 [10]): delayed substantially | rescue of Aβ42-induced depletion of dendritic spines, TW1 present during oligomer preparation ([11]; 500 nM Aβ42 oligomerized in presence of 250 nM TW1, 48 h): rescued this toxic effect to baseline level; also recorded: essentially complete rescue | rescue of dendritic spines, TW1 added with pre-formed Aβ42 oligomers ([11]; 500 nM pre-formed Aβ42 oligomers, 5 μM TW1 (10-fold excess), 48 h): moderate rescue effect | effect of TW1 alone on dendritic spine morphology ([11]; 5 μM TW1): no effect | inhibition of Aβ42-induced toxicity (in words) ([12]; 10 μM Aβ42, tweezers 0.1-100 μM, dose-dependence experiment): inhibit Aβ-induced toxicity dose-dependently | IC50 ([12]; Rattus norvegicus, 10 μM Aβ42, tweezers 0.1-100 μM, PC-12 differentiated 48 hours, read-out: IC50, inhibition of Aβ42-induced toxicity): 60 µM | times more TW1 required to inhibit Aβ42 than Aβ40 toxicity ([12]; from IC50 values): 9-10 times
